According to US20110177136A1, “METHOD AND PRODUCT” (priority 2008, published 2011):
≈ marks a conversion by molar mass, not a printed value.

Experiments:
physchem = conditions: 37 °C, water, thermodynamic from solid
[1] = 24 h
[2] = In vitro dissolution test in simulated gastric fluid (USP 24 type II apparatus); format: physicochemical; conditions: 900 ml SGF pH 2, 37±0.5° C., 100 rpm, equivalent to 200 mg carbamazepine
Method: SGF was prepared with 2 g/L NaCl and 1 g/L Triton X-100, and acidified to pH 2 with HCl. Bath temperature was maintained at 37±0.5° C. and stirred at 100 rpm. Samples were collected at 15, 30 and 60 min and replaced with a fresh dissolution medium. After centrifugation, filtration through 0.45 μm membrane filter and suitable dilution, concentration of carbamazepine was determined spectrophotometrically at 320 nm.

solubility at 24 h (physchem): 290 µg/mL (≈ 1230 µM)
Saturation Solubility [1]: 290 µg/mL
Percentage of Carbamazepine released ([2]; 15 min, listed as pure carbamazepine): 43.48%
Percentage of Carbamazepine released ([2]; 15 min, listed as pure drug): 43.48 ± 2.23%
Percentage of Carbamazepine released ([2]; 30 min, listed as pure carbamazepine): 59.29%
Percentage of Carbamazepine released ([2]; 30 min, listed as pure drug): 59.29 ± 2.21%
Percentage of Carbamazepine released ([2]; 60 min, listed as Pure carbamazepine): 69.11%
Percentage of Carbamazepine released ([2]; 60 min, listed as pure drug): 69.11 ± 2.24%
Structure (SMILES): NC(=O)N1c2ccccc2C=Cc2ccccc21 [Carbamazepine, carbamazepine]
